pEC50, pIC50, pKi: −log10 of the molar value. Square brackets hold non-standard residues; d marks the D form. Peptide text beside a SMILES is read from it. * marks the point of attachment. CH2(1-naphthyl) = c1ccc2c(C*)cccc2c1; Hyp = O=C(O)[C@@H]1C[C@@H](O)CN1; Chg = N[C@H](C(=O)O)C1CCCCC1; Ac3c = NC1(C(=O)O)CC1
Tests used:
[1] = tested on: Hepatitis C virus; test: Antiviral activity against HCV GT1b-genotype assessed as viral growth inhibition measured after 24 hrs; format: functional, organism-based, Hepacivirus hominis; conditions: Hepatitis C virus, GT1b-genotype, 24 h
[2] = tested on: Hepatitis C virus; test: Antiviral activity against HCV GT1a-genotype assessed as inhibition of viral replication; format: functional, organism-based, Hepacivirus hominis
[3] = tested on: Hepatitis C virus; test: Antiviral activity against HCV genotype 1b; format: functional, organism-based, Hepacivirus hominis
[4] = tested on: Hepatitis C virus; test: Antiviral activity against HCV genotype 1a; format: functional, organism-based, Hepacivirus hominis
[5] = tested on: Hepatitis C virus; test: Antiviral activity against HCV genotype 1b expressing NS5B S365A mutant variant; format: functional, organism-based, Hepacivirus hominis
[6] = tested on: Hepatitis C virus; test: Antiviral activity against HCV genotype 1b by replicon assay; format: functional, organism-based, Hepacivirus hominis
[7] = tested on: Hepatitis C virus; test: Inhibition of HCV genotype 1a; format: functional, organism-based, Hepacivirus hominis
[8] = molecular target: Hepatitis C virus serine protease, NS3/NS4A (Hepatitis C virus, UniProt A3EZI9+D2K2A8); test: Inhibition of HCV NS4A-NS3 protease; format: protein-complex assay, Hepacivirus hominis
[9] = Binding affinity to Hepatitis C virus NS3 assessed as inhibition constant; parameters: species or system Hepacivirus hominis
[10] = molecular target: T1, Nuclear receptor subfamily 1 group I member 2 (Homo sapiens, UniProt O75469); test: Inhibition of PXR (unknown origin)
T1 sequence (O75469 whole entry): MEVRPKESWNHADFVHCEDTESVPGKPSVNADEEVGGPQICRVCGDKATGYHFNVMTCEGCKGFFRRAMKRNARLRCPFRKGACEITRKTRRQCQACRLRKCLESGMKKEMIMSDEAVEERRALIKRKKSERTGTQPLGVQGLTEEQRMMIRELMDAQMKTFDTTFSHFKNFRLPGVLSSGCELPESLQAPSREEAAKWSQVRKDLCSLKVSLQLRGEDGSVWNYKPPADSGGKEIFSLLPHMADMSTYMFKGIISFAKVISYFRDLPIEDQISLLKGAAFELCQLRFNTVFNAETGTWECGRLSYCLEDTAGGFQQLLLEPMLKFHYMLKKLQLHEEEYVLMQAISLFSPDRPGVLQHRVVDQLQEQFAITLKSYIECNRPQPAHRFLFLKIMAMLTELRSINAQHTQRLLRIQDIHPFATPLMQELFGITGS

[11] = tested on: Hepatitis C virus; test: Antiviral activity against HCV genotype 1b harboring NS5A Y93H mutant; format: functional, organism-based, Hepacivirus hominis
[12] = Oral bioavailability in rat at 3 mg/kg; format: ADME, organism-based; conditions: in vivo
[13] = Solubility in water at pH 7; format: physicochemical

Sequence of Hepatitis C virus serine protease, NS3/NS4A (D2K2A8 whole entry): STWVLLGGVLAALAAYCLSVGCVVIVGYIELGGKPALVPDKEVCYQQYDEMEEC
Sequence of Hepatitis C virus serine protease, NS3/NS4A (A3EZI9 whole entry): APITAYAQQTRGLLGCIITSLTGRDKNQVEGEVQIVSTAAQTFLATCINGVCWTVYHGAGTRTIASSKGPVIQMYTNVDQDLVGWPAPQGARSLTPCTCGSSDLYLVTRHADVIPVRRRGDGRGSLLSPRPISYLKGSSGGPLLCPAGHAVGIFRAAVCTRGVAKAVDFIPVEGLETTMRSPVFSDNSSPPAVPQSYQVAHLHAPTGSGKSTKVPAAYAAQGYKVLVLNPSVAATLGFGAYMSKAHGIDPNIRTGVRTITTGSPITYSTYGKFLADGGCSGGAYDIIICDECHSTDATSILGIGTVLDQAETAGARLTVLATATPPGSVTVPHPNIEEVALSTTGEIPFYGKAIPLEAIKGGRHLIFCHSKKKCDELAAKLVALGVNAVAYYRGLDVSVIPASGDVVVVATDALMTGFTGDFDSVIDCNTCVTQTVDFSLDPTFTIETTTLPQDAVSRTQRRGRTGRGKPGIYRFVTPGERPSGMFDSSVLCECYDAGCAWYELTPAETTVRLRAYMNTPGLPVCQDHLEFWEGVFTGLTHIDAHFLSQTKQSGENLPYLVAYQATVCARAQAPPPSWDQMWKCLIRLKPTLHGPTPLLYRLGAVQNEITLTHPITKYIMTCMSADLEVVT

## COc1ccc2c(c1)C=C(C(=O)N1CCOCC1)Cn1c-2c(C2CCCCC2)c2ccc(C(=O)NS(=O)(=O)N(C)C)cc21
[1]
  pEC50: 7.21
[2]
  pEC50: 7.21

## CN(C)[C@@H](C(=O)N1CCC[C@H]1c1ncc(-c2ccc(-c3ccc(-c4cnc([C@@H]5CCCN5C(=O)[C@@H](c5ccccc5)N(C)C)[nH]4)cc3)cc2)[nH]1)c1ccccc1
[3]
  pEC50: 10.38
[4]
  pEC50: 10.43

## O=C(O)/C=C/c1ccc(NC(=O)C2(NC(=O)c3ccc4c(C5CCCCC5)c5n(c4c3)CC(=O)Nc3ccccc3-5)CCCC2)cc1
[5]
  pEC50: 8.10

## COc1ccc2c(c1)[C@@H]1C[C@]1(C(=O)N1C[C@@H](C)O[C@@H](C)C1)Cn1c-2c(C2CCCCC2)c2ccc(C(=O)NS(=O)(=O)N(C)C)cc21
[1]
  pEC50: 8.52
[2]
  pEC50: 9.00

## C=C[C@@H]1C[C@]1(NC(=O)[C@@H]1C[C@@H](Oc2cc(-c3ccccc3)nc3cc(OC)ccc23)CN1C(=O)[C@@H](NC(=O)OC(C)(C)C)C(C)(C)C)C(=O)O
[6]
  pEC50: 6.26
[7]
  pIC50: 7.27

## CC(=O)N[C@H](C(=O)N[C@H](C(=O)N1C[C@H](OCc2cccc3ccccc23)C[C@H]1C(=O)NC1(C(=O)O)CC1)C(C)C)C1CCCCC1 (Ac-[Chg]V[Hyp](CH2(1-naphthyl))[Ac3c]-OH)
[8]
  pIC50: 5.46

## Ac-DEMEEC-OH
[9]
  pKi: 6.22

## CN(C)S(=O)(=O)NC(=O)c1ccc2c(C3CCCCC3)c3n(c2c1)C[C@]1(C(=O)N2CCOCC2)C[C@@H]1c1ccccc1-3
[1]
  pEC50: 6.47
[2]
  pEC50: 6.33

## COc1ccc2c(c1)C=C(C(=O)N1C[C@@H](C)O[C@@H](C)C1)Cn1c-2c(C2CCCCC2)c2ccc(C(=O)NS(=O)(=O)N(C)C)cc21
[1]
  pEC50: 7.40
[10]
  pIC50: < 5.00
[2]
  pEC50: 7.40

## C[C@H](NC(=O)Cc1ccccc1)C(=O)Nc1ccc(C2(O)C(=O)N(Cc3ccco3)C(=S)N2c2cccc(F)c2)cc1 (stereo partly specified)
[11]
  pEC50: 7.37

## O=C1Cn2c(c(C3CCCCC3)c3ccc(C(=O)O)cc32)-c2ccccc2N1
[12]
  bioavailability: 17%
[3]
  pEC50: > 8.00
[4]
  pEC50: > 8.00
[5]
  pEC50: 6.77

## CN(C)S(=O)(=O)NC(=O)c1ccc2c(C3CCCCC3)c3n(c2c1)CC(C(=O)N1CCOCC1)=Cc1ccccc1-3
[1]
  pEC50: 6.83
[2]
  pEC50: 6.92
[13]
  solubility: < 1 µg/mL

## CN(C)S(=O)(=O)NC(=O)c1ccc2c(C3CCCCC3)c3n(c2c1)C[C@@]1(C(=O)N2CCOCC2)C[C@H]1c1ccccc1-3
[1]
  pEC50: 7.29
[2]
  pEC50: 7.39

Reference: ChEMBL document CHEMBL5252531, “2015 Philip S. Portoghese Medicinal Chemistry Lectureship. Curing Hepatitis C Virus Infection with Direct-Acting Antiviral Agents: The Arc of a Medicinal Chemistry Triumph” (J Med Chem, 2016)
